Results from US6486098B1, “Herbicidal phenoxypropionic acid N-alkyl-N-2-fluorophenyl amide compounds” (Dongbu Hannong Chemical Co. Ltd., priority 1999, dated 2002).

Tests used:
[1] = system: TRZAW (Wheat); assay: Leaf treatment test, wheat; format: in vivo, Triticum aestivum L.; conditions: 14 days after treatment
Procedure: (§1) Seeds of rice, wheat, barley, corn, cotton, barnyard grass, common sorgum, large crabgrass and fall panicum were seeded at a pot with a surface area of 600 cm^2. […] 14 days after the treatment, the degree of damage to the plants was rated in % damage in comparison to the development of untreated control.

[2] = system: PANDI (Fall panicum); assay: Leaf treatment test, fall panicum; format: in vivo, Panicum dichotomiflorum Michx; conditions: 14 days after treatment
Procedure: as §1

[3] = system: SORBI (Common sorgum); assay: Leaf treatment test, common sorgum; format: in vivo, Andropogon sorghum; conditions: 14 days after treatment
Procedure: as §1

[4] = system: ECHCG (Barnyard grass); assay: Leaf treatment test, barnyard grass; format: in vivo, Echinochloa crus-galli Beauv. var. caudata Kitagawa; conditions: leaf treatment at three leaves, 14 days after treatment
Procedure: as §1

[5] = system: ORYSA (Rice); assay: Leaf treatment test, rice; format: in vivo, Oryza sativa L. cv. Dongjin; conditions: 14 days after treatment
Procedure: as §1

[6] = system: DIGSA (Large crabgrass); assay: Leaf treatment test, large crabgrass; format: in vivo, Digitaria Sanguinalis (L.) SCOP; conditions: 14 days after treatment
Procedure: as §1

[7] = system: GLXMA (Soy bean); assay: Leaf treatment test, soy bean; format: in vivo, Glycine max (L.) MERR; conditions: 14 days after treatment
[8] = system: ZEAMX (Corn); assay: Leaf treatment test, corn; format: in vivo, Zea mays L.; conditions: 14 days after treatment
Procedure: as §1

[9] = system: GOSHI (Cotton); assay: Leaf treatment test, cotton; format: in vivo, Gossypium; conditions: 14 days after treatment
Procedure: as §1

| SMILES | degree of damage to the plants (% damage) ([1]; treated amount 0.025 kg/ha) [%] | degree of damage to the plants (% damage) ([1]; treated amount 0.1 kg/ha) [%] | degree of damage to the plants (% damage) ([1]; treated amount 0.4 kg/ha) [%] | degree of damage to the plants (% damage) ([2]; treated amount 0.025 kg/ha) [%] | degree of damage to the plants (% damage) ([2]; treated amount 0.1 kg/ha) [%] | degree of damage to the plants (% damage) ([2]; treated amount 0.4 kg/ha) [%] | degree of damage to the plants (% damage) ([3]; treated amount 0.025 kg/ha) [%] | degree of damage to the plants (% damage) ([3]; treated amount 0.1 kg/ha) [%] | degree of damage to the plants (% damage) ([3]; treated amount 0.4 kg/ha) [%] | degree of damage to the plants (% damage) ([4]; treated amount 0.025 kg/ha) [%] | degree of damage to the plants (% damage) ([4]; treated amount 0.1 kg/ha) [%] | degree of damage to the plants (% damage) ([4]; treated amount 0.4 kg/ha) [%] | degree of damage to the plants (% damage) ([5]; treated amount 0.025 kg/ha) [%] | degree of damage to the plants (% damage) ([5]; treated amount 0.1 kg/ha) [%] | degree of damage to the plants (% damage) ([5]; treated amount 0.4 kg/ha) [%] | degree of damage to the plants (% damage) ([6]; treated amount 0.025 kg/ha) [%] | degree of damage to the plants (% damage) ([6]; treated amount 0.1 kg/ha) [%] | degree of damage to the plants (% damage) ([6]; treated amount 0.4 kg/ha) [%] | degree of damage to the plants (% damage) ([7]; treated amount 0.025 kg/ha) [%] | degree of damage to the plants (% damage) ([7]; treated amount 0.1 kg/ha) [%] | further results |
| --- | --- | --- | --- | --- | --- | --- | --- | --- | --- | --- | --- | --- | --- | --- | --- | --- | --- | --- | --- | --- | --- |
| Cc1ccc(N(C)C(=O)C(C)Oc2ccc(Oc3nc4ccc(Cl)cc4o3)cc2)c(F)c1 (stereo not drawn) [Compound No. 10] | 0 | 0 | 0 | 0 | 0 | 70 | 30 | 60 | 100 | 0 | 0 | 80 | 0 | 0 | 0 | 70 | 95 | 100 | 0 | 0 | degree of damage to the plants (% damage) ([7]; treated amount 0.4 kg/ha): 0%; degree of damage to the plants (% damage) ([8]; treated amount 0.025 kg/ha): 0%; degree of damage to the plants (% damage) ([8]; treated amount 0.1 kg/ha): 0%; degree of damage to the plants (% damage) ([8]; treated amount 0.4 kg/ha): 0%; degree of damage to the plants (% damage) ([9]; treated amount 0.025 kg/ha): 0%; degree of damage to the plants (% damage) ([9]; treated amount 0.1 kg/ha): 0%; degree of damage to the plants (% damage) ([9]; treated amount 0.4 kg/ha): 0% |
| CC(Oc1ccc(Oc2nc3ccc(Cl)cc3o2)cc1)C(=O)N(C)c1ccc(Cl)cc1F (stereo not drawn) [Compound No. 8] | 0 | 0 | 0 | 0 | 0 | 100 | 0 | 70 | 100 | 0 | 0 | 70 | 0 | 0 | 0 | 30 | 95 | 100 | 0 | 0 | degree of damage to the plants (% damage) ([7]; treated amount 0.4 kg/ha): 0%; degree of damage to the plants (% damage) ([8]; treated amount 0.025 kg/ha): 0%; degree of damage to the plants (% damage) ([8]; treated amount 0.1 kg/ha): 0%; degree of damage to the plants (% damage) ([8]; treated amount 0.4 kg/ha): 0%; degree of damage to the plants (% damage) ([9]; treated amount 0.025 kg/ha): 0%; degree of damage to the plants (% damage) ([9]; treated amount 0.1 kg/ha): 0%; degree of damage to the plants (% damage) ([9]; treated amount 0.4 kg/ha): 0% |
| CC(Oc1ccc(Oc2nc3ccc(Cl)cc3o2)cc1)C(=O)N(C)c1ccc(F)cc1F (stereo not drawn) [Compound No. 5, 2-[4-(6-Chloro-2-benzoxazoyloxy)-phenoxy]propionic Acid-N-(2,4-difluorophenyl)-N-methyl Amide] | 0 | 0 | 0 | 40 | 80 | 100 | 100 | 100 | 100 | 0 | 100 | 100 | 0 | 0 | 0 | 100 | 100 | 100 | 0 | 0 | degree of damage to the plants (% damage) ([7]; treated amount 0.4 kg/ha): 0%; degree of damage to the plants (% damage) ([8]; treated amount 0.025 kg/ha): 0%; degree of damage to the plants (% damage) ([8]; treated amount 0.1 kg/ha): 30%; degree of damage to the plants (% damage) ([8]; treated amount 0.4 kg/ha): 100%; degree of damage to the plants (% damage) ([9]; treated amount 0.025 kg/ha): 0%; degree of damage to the plants (% damage) ([9]; treated amount 0.1 kg/ha): 0%; degree of damage to the plants (% damage) ([9]; treated amount 0.4 kg/ha): 0% |
| CC(Oc1ccc(Oc2nc3ccc(Cl)cc3o2)cc1)C(=O)N(C)c1c(F)ccc(F)c1F (stereo not drawn) [Compound No. 6, 2-[4-(6-Chloro-2-benzoxazoyloxy)-phenoxy]propionic Acid-N-methyl-N-(2,3,6-trifluorophenyl)amide] | 0 | 0 | 0 | 40 | 100 | 100 | 100 | 100 | 100 | 95 | 100 | 100 | 0 | 0 | 20 | 40 | 100 | 100 | 0 | 0 | degree of damage to the plants (% damage) ([7]; treated amount 0.4 kg/ha): 0%; degree of damage to the plants (% damage) ([8]; treated amount 0.025 kg/ha): 30%; degree of damage to the plants (% damage) ([8]; treated amount 0.1 kg/ha): 100%; degree of damage to the plants (% damage) ([8]; treated amount 0.4 kg/ha): 100%; degree of damage to the plants (% damage) ([9]; treated amount 0.025 kg/ha): 0%; degree of damage to the plants (% damage) ([9]; treated amount 0.1 kg/ha): 0%; degree of damage to the plants (% damage) ([9]; treated amount 0.4 kg/ha): 0% |
| CCOc1ccc(N(C)C(=O)C(C)Oc2ccc(Oc3nc4ccc(Cl)cc4o3)cc2)c(F)c1 (stereo not drawn) [Compound No. 12] | 0 | 0 | 0 | 0 | 0 | 0 | 0 | 0 | 30 | 0 | 0 | 30 | 0 | 0 | 00 | 80 | 100 | 100 | 0 | 0 | degree of damage to the plants (% damage) ([7]; treated amount 0.4 kg/ha): 0%; degree of damage to the plants (% damage) ([8]; treated amount 0.025 kg/ha): 0%; degree of damage to the plants (% damage) ([8]; treated amount 0.1 kg/ha): 0%; degree of damage to the plants (% damage) ([8]; treated amount 0.4 kg/ha): 0%; degree of damage to the plants (% damage) ([9]; treated amount 0.025 kg/ha): 0%; degree of damage to the plants (% damage) ([9]; treated amount 0.1 kg/ha): 0%; degree of damage to the plants (% damage) ([9]; treated amount 0.4 kg/ha): 0% |
